Like-named read-outs stand apart in the source and are kept apart here. One block for each compound: values may come before it.
Target: T1, CFTR (Homo sapiens, UniProt P13569, DEL508-508)
T1 construct: endogenous in cells; host or cells: primary human bronchial epithelial cells from CF subjects (F508del/MF-HBE), differentiated at air-liquid interface
Assay: HBE assay: Ussing chamber assay of CFTR-mediated short-circuit currents
Type: cell-based
Conditions: for EC50: read-out: HBE EC50
In short: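 CFTR-mediated Isc (μA/cm²) equals the peak response to apical 20 μM forskolin minus the residual after a 20 μM each BPO/GlyH-101/CFTR inhibitor 172 cocktail, recorded in Ussing chambers at Vhold 0 mV, 37 °C, pH 7.4, with 30 μM apical amiloride. Cells were F508del/MF HBE cultures preincubated 18-24 h with corrector (concentration range or 10 μM) plus 1 μM ivacaftor in 20% human serum.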

[1] = Table 12, read-out: HBE Max Activity (%)
[2] = Table 10, read-out: HBE Max activity (%)
[3] = Table 13, at 10 μM, read-out: HBE Activity at 10 μM (%)
[4] = HBE assay, 10 μM, read-out: HBE Activity at 10 μM (%)
[5] = HBE assay, read-out: HBE Max activity (%)
[6] = Table 11, read-out: HBE Max Activity (%)
[7] = Table 12, at 10 μM, read-out: HBE Activity at 10 μM (%)

T1 sequence (P13569 with tags, fused parts or gaps DEL508-508): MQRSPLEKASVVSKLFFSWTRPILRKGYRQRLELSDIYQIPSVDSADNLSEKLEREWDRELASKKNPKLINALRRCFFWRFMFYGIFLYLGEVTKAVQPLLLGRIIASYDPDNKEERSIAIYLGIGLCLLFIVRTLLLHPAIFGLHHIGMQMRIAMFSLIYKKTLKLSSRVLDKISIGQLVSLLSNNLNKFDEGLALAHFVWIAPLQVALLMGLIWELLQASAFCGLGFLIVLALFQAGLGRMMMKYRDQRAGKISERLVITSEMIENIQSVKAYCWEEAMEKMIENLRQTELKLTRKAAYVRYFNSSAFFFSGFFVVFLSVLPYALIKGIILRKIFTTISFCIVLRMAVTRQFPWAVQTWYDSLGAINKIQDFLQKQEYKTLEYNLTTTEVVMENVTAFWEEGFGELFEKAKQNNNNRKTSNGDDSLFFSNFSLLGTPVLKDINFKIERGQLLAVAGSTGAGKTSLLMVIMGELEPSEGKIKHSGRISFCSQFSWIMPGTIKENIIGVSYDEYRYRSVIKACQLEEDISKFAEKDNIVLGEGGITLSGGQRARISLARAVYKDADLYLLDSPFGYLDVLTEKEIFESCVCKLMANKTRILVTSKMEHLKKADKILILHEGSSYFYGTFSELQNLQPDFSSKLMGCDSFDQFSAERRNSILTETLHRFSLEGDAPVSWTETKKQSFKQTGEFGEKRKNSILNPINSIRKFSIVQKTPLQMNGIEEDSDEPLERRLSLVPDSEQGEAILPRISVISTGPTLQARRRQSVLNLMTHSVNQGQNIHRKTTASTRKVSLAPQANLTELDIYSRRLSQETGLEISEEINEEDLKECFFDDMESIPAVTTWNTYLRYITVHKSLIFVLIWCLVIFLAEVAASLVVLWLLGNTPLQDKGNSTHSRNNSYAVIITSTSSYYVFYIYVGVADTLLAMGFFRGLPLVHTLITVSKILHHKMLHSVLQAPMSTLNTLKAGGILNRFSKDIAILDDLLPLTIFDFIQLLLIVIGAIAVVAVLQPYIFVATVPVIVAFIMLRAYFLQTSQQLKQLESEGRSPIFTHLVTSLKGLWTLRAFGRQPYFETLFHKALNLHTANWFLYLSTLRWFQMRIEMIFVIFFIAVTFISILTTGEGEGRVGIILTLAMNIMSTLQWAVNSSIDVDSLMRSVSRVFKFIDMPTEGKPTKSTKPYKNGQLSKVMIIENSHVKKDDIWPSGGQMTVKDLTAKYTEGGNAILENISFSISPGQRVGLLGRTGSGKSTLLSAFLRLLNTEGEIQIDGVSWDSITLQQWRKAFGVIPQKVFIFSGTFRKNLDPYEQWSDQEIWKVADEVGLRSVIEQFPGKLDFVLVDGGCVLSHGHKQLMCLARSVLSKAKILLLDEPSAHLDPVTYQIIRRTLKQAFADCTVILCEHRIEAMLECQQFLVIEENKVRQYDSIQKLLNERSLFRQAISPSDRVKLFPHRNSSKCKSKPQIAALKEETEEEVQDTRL

Compound: Cc1cccc(C)c1-c1cc2nc(n1)NS(=O)(=O)c1cccc(c1)C(=O)N(Cc1ncccc1-c1c(C)n[nH]c1C)[C@H](CC(C)(C)C)CO2 [Compound 301]
- EC50 (Table 10): < 1000 nM
- Emax [2]: > 60%

Compound: Cc1cccc(C)c1-c1nc2nc(c1C)OC[C@@H](CC(C)(C)C)N(Cc1ncc(N(C)C)cc1N(C)C)C(=O)c1cccc(c1)S(=O)(=O)N2 [Compound 486]
- activation at 10 µM (Table 10, at 10 μM, read-out: HBE activity at 10 (μM) (%)): > 60%

Compound: CC[C@H](C)[C@@H]1COc2cc(-c3c(C)cccc3C)nc(n2)NS(=O)(=O)c2cccc(c2)C(=O)N1Cc1ncc(OC2CCC2)cn1 [Compound 1472]
- activation at 10 µM [4]: > 60%
- EC50 (HBE assay): < 1000 nM
- Emax [5]: > 60%

Compound: Cc1cccc(C)c1-c1cc2nc(n1)NS(=O)(=O)c1cccc(c1)C(=O)N(Cc1ncc(N3CCCC3(C)C)cn1)[C@H](CC(C)(C)C)CO2 [Compound 537]
- EC50 (Table 13): < 1000 nM
- Emax (Table 13, read-out: HBE Max Activity (%)): > 60%

Compound: Cc1cccc(C)c1-c1cc2nc(n1)NS(=O)(=O)c1cccc(c1)C(=O)N(CC(=O)NC1CCOCC1)[C@H](CC(C)(C)C)CO2 [Compound 189]
- activation at 10 µM [3]: > 600%

Compound: Cc1cccc(C)c1-c1cc2nc(n1)NS(=O)(=O)c1cccc(c1)C(=O)N(CC(=O)N1CCC(N(C)C)CC1)[C@H](CC(C)(C)C)CO2 [Compound 186]
- activation at 10 µM [3]: > 600%

Compound: Cc1cccc(C)c1-c1cc2nc(n1)NS(=O)(=O)c1cccc(c1)C(=O)N(Cc1cccc(N(C)C3CCCC3)n1)[C@H](CC(C)(C)C)CO2 [Compound 1355]
- EC50 (HBE assay): < 1000 nM
- Emax [5]: > 60%

Compound: Cc1cccc(C)c1-c1cc2nc(n1)NS(=O)(=O)c1cccc(c1)C(=O)N(CC1CCC(O)(C(F)(F)F)CC1)[C@H](CC(C)(C)C)CO2 (stereo partly shown) [Compound 905]
- EC50 (Table 10): < 1000 nM
- Emax [2]: > 60%

Compound: Cc1cccc(C)c1-c1cc2nc(n1)NS(=O)(=O)c1cccc(c1)C(=O)N(Cc1ccc(-c3c(C)n[nH]c3C)cn1)[C@H](CC(C)(C)C)CO2 [Compound 298]
- EC50 (Table 10): 1000 to 3000 nM
- Emax [2]: > 60%

Compound: Cc1cccc(C)c1-c1cc2nc(n1)NS(=O)(=O)c1cccc(c1)C(=O)N(Cc1cnc(N3CCC(C)(C)C3)nc1)[C@H](CC(C)(C)C)CO2 [Compound 272]
- EC50 (Table 12): < 1000 nM
- Emax [1]: > 60%

Compound: Cc1cccc(C)c1-c1cc2nc(n1)NS(=O)(=O)c1cccc(c1)C(=O)N(CC1CCCC(C)(C)O1)[C@H](CC(C)(C)C)CO2 (single isomer, unassigned) [Compound 19]
- activation at 10 µM (Table 11, at 10 μM, read-out: HBE Activity at 10 μM (%)): > 60%

Compound: COC[C@H]1CCCN1c1cccc(CN2C(=O)c3cccc(c3)S(=O)(=O)Nc3nc(cc(-c4c(C)cccc4C)n3)OC[C@H]2CC(C)(C)C)n1 [Compound 276]
- EC50 (Table 12): < 1000 nM
- Emax [1]: > 60%

Compound: Cc1cccc(C)c1-c1cc2nc(n1)NS(=O)(=O)c1cccc(c1)C(=O)N(CC(=O)N(C)CC1CCCOC1)[C@H](CC(C)(C)C)CO2 (stereo partly shown) [Compound 193]
- activation at 10 µM [3]: > 600%

Compound: Cc1cccc(C)c1-c1cc2nc(n1)NS(=O)(=O)c1cccc(c1)C(=O)N(Cc1ncc(N3CC(C)(C)C3)cn1)[C@H](CCC(C)(C)C)CO2 [Compound 1525]
- activation at 10 µM [4]: > 60%

Compound: Cc1cccc(C)c1-c1cc2nc(n1)NS(=O)(=O)c1cccc(c1)C(=O)N(Cc1cnc(N3CCC(C)(C)C3)cn1)[C@H](CC(C)(C)C)CO2 [Compound 607]
- EC50 (Table 11): < 1000 nM
- Emax [6]: > 60%

Compound: Cc1cccc(C)c1-c1cc2cc(n1)NS(=O)(=O)c1cccc(c1)C(=O)N(Cc1ncc(N3CCC(C)(C)C3)cn1)[C@H](CC(C)(C)C)CO2 [Compound 524]
- EC50 (Table 12): < 1000 nM
- Emax [1]: > 60%

Compound: Cc1cccc(C)c1-c1cc2nc(n1)NS(=O)(=O)c1cccc(c1)C(=O)N(Cc1cncc(N3CCCC[C@H]3C3CC3)n1)[C@H](CC(C)(C)C)CO2 [Compound 1532]
- activation at 10 µM (read-out: HBE Activity at 10 μM (%)): > 60%

Compound: Cc1cccc(C)c1-c1cc2nc(n1)NS(=O)(=O)c1cccc(c1)C(=O)N(Cc1ncc(N3CCC(OC(C)C)CC3)cn1)[C@H](CC(C)(C)C)CO2 [Compound 568]
- EC50 (Table 12): < 1000 nM
- Emax [1]: > 60%

Compound: Cc1cccc(C)c1-c1cc2nc(n1)NS(=O)(=O)c1cccc(c1)C(=O)N(Cc1ccc(C3=CCN=N3)cc1)[C@H](CC(C)(C)C)CO2 [Compound 289]
- Emax [2]: > 60%

Compound: Cc1cccc(C)c1-c1cc2nc(n1)NS(=O)(=O)c1cccc(c1)C(=O)N(Cc1cccc(N3CCC[C@H]3C)n1)[C@H](CC(C)C)CO2 [Compound 573]
- EC50 (Table 12): < 1000 nM
- Emax [1]: > 60%

Compound: Cc1cccc(C)c1-c1cc2nc(n1)NS(=O)(=O)c1cccc(c1)C(=O)N(CC1CC3(C1)CC(NC(=O)OC(C)C)C3)[C@H](CC(C)(C)C)CO2 (stereo partly shown) [Compound 1003]
- activation at 10 µM [3]: > 600%

Compound: Cc1cccc(C)c1-c1cc2nc(n1)NS(=O)(=O)c1cccc(c1)C(=O)N(CC(=O)N1CCC(c3ccccc3)CC1)[C@H](CC(C)(C)C)CO2 [Compound 203]
- activation at 10 µM [3]: > 600%

The next lines start with the values.

- EC50 (Table 12): < 1000 nM
- Emax [1]: > 60%
Compound: Cc1cccc(C)c1-c1cc2nc(n1)NS(=O)(=O)c1cccc(c1)C(=O)N(Cc1ccnc(CC(C)C)n1)[C@H](CC(C)(C)C)CO2 [Compound 594]

- EC50 (Table 12): < 1000 nM
- Emax [1]: > 60%
Compound: Cc1cccc(C)c1-c1cc2nc(n1)NS(=O)(=O)c1cccc(c1)C(=O)N(Cc1ncc(N(C)C3CC4(CC4)C3)cn1)[C@H](CC(C)(C)C)CO2 [Compound 575]

- activation at 10 µM [3]: > 600%
Compound: COC(=O)c1ccc(CN2C(=O)c3cccc(c3)S(=O)(=O)Nc3nc(cc(-c4c(C)cccc4C)n3)OC[C@H]2CC(C)(C)C)nc1 [Compound 248]

- EC50 (Table 12): < 1000 nM
- Emax [1]: > 60%
Compound: Cc1cccc(C)c1-c1cc2nc(n1)NS(=O)(=O)c1cccc(c1)C(=O)N(Cc1cncc(N(C)CC(C)(C)C)n1)[C@H](C(C)C)CO2 [Compound 694]

- Emax [2]: > 60%
Compound: Cc1cccc(C)c1-c1cc2nc(n1)NS(=O)(=O)c1cccc(c1)C(=O)N(Cc1cnn(CC(C)C)c1)[C@H](CC(C)(C)C)CO2 [Compound 487]

- EC50 (Table 10): < 1000 nM
- Emax [2]: > 60%
Compound: Cc1cccc(C)c1-c1cc2nc(n1)NS(=O)(=O)c1cccc(c1)C(=O)N(Cc1ccccc1OCC(C)(C)OO)[C@H](CC(C)(C)C)CO2 [Compound 781]

- EC50 (Table 11): < 1000 nM
- Emax [6]: > 60%
Compound: Cc1cccc(C)c1-c1cc2nc(n1)NS(=O)(=O)c1cccc(c1)C(=O)N(Cc1nccc(NC3CCCCC3)n1)[C@H](CC(C)(C)C)CO2 [Compound 614]

- EC50 (Table 12): < 1000 nM
- Emax [1]: > 60%
Compound: Cc1cccc(C)c1-c1cc2nc(n1)NS(=O)(=O)c1cccc(c1)C(=O)N(Cc1ncc(N3CC[C@](C)(O)C3)cn1)[C@H](CC(C)(C)C)CO2 [Compound 541]

- EC50 (HBE assay): < 1000 nM
- Emax [5]: > 60%
Compound: Cc1cccc(C)c1-c1cc2nc(n1)NS(=O)(=O)c1cccc(c1)C(=O)N(Cc1ccnc(N3CCC[C@H]3C(C)C)n1)[C@H](CC(C)(C)C)CO2 [Compound 1475]

- EC50 (Table 11): < 1000 nM
- Emax [6]: > 60%
Compound: Cc1cccc(C)c1-c1cc2nc(n1)NS(=O)(=O)c1cccc(c1)C(=O)N(Cc1nccc(N(C)CC(C)(C)C)n1)[C@H](CC(C)(C)C)CO2 [Compound 650]

- EC50 (Table 12): < 1000 nM
- Emax [1]: > 60%
Compound: Cc1cccc(C)c1-c1cc2cc(n1)NS(=O)(=O)c1cccc(c1)C(=O)N(Cc1cncc(N(C)CC(C)(C)C)n1)[C@H](CC(C)(C)C)CO2 [Compound 527]

- activation at 10 µM [4]: > 60%
Compound: COCC(COC)N(C)c1cncc(CN2C(=O)c3cccc(c3)S(=O)(=O)Nc3nc(cc(-c4c(C)cccc4C)n3)OC[C@H]2CC(C)(C)C)n1 [Compound 1531]

- activation at 10 µM [7]: > 600%
Compound: COc1cccc(C)c1-c1cc2nc(n1)NS(=O)(=O)c1cccc(c1)C(=O)N(Cc1cncc(N(C)CC(C)(C)C)n1)[C@H](CC(C)(C)C)CO2 [Compound 544]

- activation at 10 µM [7]: > 600%
Compound: Cc1cnc(CN2C(=O)c3cccc(c3)S(=O)(=O)Nc3nc(cc(-c4c(C)cccc4C)n3)OC[C@H]2CC(C)(C)C)nc1N(C)C1CCCC1 [Compound 329]

- EC50 (Table 11): < 1000 nM
- Emax [6]: > 60%
Compound: Cc1cccc(C)c1-c1cc2nc(n1)NS(=O)(=O)c1cccc(c1)C(=O)N(Cc1cncc(N(C)CC(C)(C)C)n1)[C@H](CC(C)(C)C)CO2 [Compound 62, (11R)-6-(2,6-Dimethylphenyl)-11-(2,2-dimethylpropyl)-12-({6-[(2,2-dimethylpropyl)(methyl)amino]pyrazin-2-yl}methyl)-9-oxa-2λ^6-thia-3,5,12,19-tetraazatricyclo[12.3.1.14,8]nonadeca-1(18),4,6,8(19),14,16-hexaene-2,2,13-trione]

- EC50 (Table 11): < 1000 nM
- Emax [6]: > 60%
Compound: Cc1cccc(C)c1-c1cc2nc(n1)NS(=O)(=O)c1cccc(c1)C(=O)N(Cc1cncc(C(C)C)n1)[C@H](CC(C)(C)C)CO2 [Compound 892]

- EC50 (Table 11): < 1000 nM
- Emax [6]: > 60%
Compound: Cc1cccc(C)c1-c1cc2nc(n1)NS(=O)(=O)c1cccc(c1)C(=O)N(Cc1cccc(N(C)CC(C)(C)C)n1)[C@H](CC(C)(C)C)CO2 [Compound 133, (11R)-6-(2,6-Dimethylphenyl)-11-(2,2-dimethylpropyl)-12-[[6-[2,2-dimethylpropyl(methyl)amino]-2-pyridyl]methyl]-2,2-dioxo-9-oxa-2λ^6-thia-3,5,12,19-tetrazatricyclo[12.3.1.14,8]nonadeca-1(18),4(19),5,7,14,16-hexaen-13-one]

- Emax [2]: > 60%
Compound: Cc1cccc(C)c1-c1cc2nc(n1)NS(=O)(=O)c1cccc(c1)C(=O)N(Cc1cnn(C(C)(C)C)c1)[C@H](CC(C)(C)C)CO2 [Compound 481]

- EC50 (Table 11): < 1000 nM
- Emax [6]: > 60%
Compound: Cc1cccc(C)c1-c1cc2nc(n1)NS(=O)(=O)c1cccc(c1)C(=O)N(Cc1ncccc1NCC(C)(C)C)[C@H](CC(C)(C)C)CO2 [Compound 724]

From patent publication US20240150377A1, “MODULATORS OF CYSTIC FIBROSIS TRANSMEMBRANE CONDUCTANCE REGULATOR” (VERTEX PHARMACEUTICALS INCORPORATED, priority 2020, published 2024)
